Active and inactive are the calls of the source. The calls are words filed in the database; no cut-off is given here.
Legend:
[1] = test system: Plasmodium gallinaceum; assay: Antimalarial activity against sporozoite-induced Plasmodium gallinaceum infected in white leghorn chicken assessed as disease cure from parasite infection at 480 mg/kg, sc administered 72 hrs after infection; assay type: functional, organism-based; set-up: dose 480 mg/kg
[2] = test system: Plasmodium gallinaceum; assay: Antimalarial activity against trophozoite-induced Plasmodium gallinaceum infected in white leghorn chicken assessed as disease cure from parasite infection at 320 mg/kg, sc administered 72 hrs after infection; assay type: functional, organism-based; set-up: dose 320 mg/kg
[3] = test system: Plasmodium gallinaceum; assay: Antimalarial activity against trophozoite-induced Plasmodium gallinaceum infected in white leghorn chicken assessed as disease cure from parasite infection at 80 mg/kg, sc administered 72 hrs after infection; assay type: functional, organism-based; set-up: dose 80 mg/kg
[4] = test system: Plasmodium gallinaceum; assay: Antimalarial activity against trophozoite-induced Plasmodium gallinaceum infected in white leghorn chicken assessed as disease cure from parasite infection at 160 mg/kg, sc administered 72 hrs after infection; assay type: functional, organism-based; set-up: dose 160 mg/kg
[5] = test system: Plasmodium gallinaceum; assay: Antimalarial activity against sporozoite-induced Plasmodium gallinaceum infected in white leghorn chicken assessed as disease cure from parasite infection at 60 mg/kg, sc administered 72 hrs after infection; assay type: functional, organism-based; set-up: dose 60 mg/kg
[6] = test system: Plasmodium gallinaceum; assay: Antimalarial activity against sporozoite-induced Plasmodium gallinaceum infected in white leghorn chicken assessed as disease cure from parasite infection at 15 mg/kg, sc administered 72 hrs after infection; assay type: functional, organism-based; set-up: dose 15 mg/kg
[7] = test system: Plasmodium gallinaceum; assay: Antimalarial activity against sporozoite-induced Plasmodium gallinaceum infected in white leghorn chicken assessed as disease cure from parasite infection at 240 mg/kg, sc administered 72 hrs after infection; assay type: functional, organism-based; set-up: dose 240 mg/kg
[8] = test system: Plasmodium berghei; assay: Antimalarial activity against Plasmodium berghei infected in mouse assessed as disease cure from parasite infection at 640 mg/kg, sc administered 72 hrs after infection; assay type: functional, organism-based; set-up: dose 640 mg/kg
[9] = test system: Plasmodium berghei; assay: Antimalarial activity against Plasmodium berghei infected in mouse assessed as disease cure from parasite infection at 160 mg/kg, sc administered 72 hrs after infection; assay type: functional, organism-based; set-up: dose 160 mg/kg
[10] = test system: Plasmodium gallinaceum; assay: Antimalarial activity against sporozoite-induced Plasmodium gallinaceum infected in white leghorn chicken assessed as disease cure from parasite infection at 120 mg/kg, sc administered 72 hrs after infection; assay type: functional, organism-based; set-up: dose 120 mg/kg
[11] = test system: Plasmodium gallinaceum; assay: Antimalarial activity against sporozoite-induced Plasmodium gallinaceum infected in white leghorn chicken assessed as disease cure from parasite infection at 30 mg/kg, sc administered 72 hrs after infection; assay type: functional, organism-based; set-up: dose 30 mg/kg
[12] = test system: Plasmodium gallinaceum; assay: Antimalarial activity against sporozoite-induced Plasmodium gallinaceum infected in white leghorn chicken assessed as disease cure from parasite infection at 7.5 mg/kg, sc administered 72 hrs after infection; assay type: functional, organism-based; set-up: dose 7.5 mg/kg
[13] = test system: Plasmodium gallinaceum; assay: Antimalarial activity against trophozoite-induced Plasmodium gallinaceum infected in white leghorn chicken assessed as disease cure from parasite infection at 40 mg/kg, sc administered 72 hrs after infection; assay type: functional, organism-based; set-up: dose 40 mg/kg
[14] = test system: Plasmodium berghei; assay: Antimalarial activity against Plasmodium berghei infected in mouse assessed as disease cure from parasite infection at 320 mg/kg, sc administered 72 hrs after infection; assay type: functional, organism-based; set-up: dose 320 mg/kg
[15] = test system: Plasmodium gallinaceum; assay: Antimalarial activity against sporozoite-induced Plasmodium gallinaceum infected in white leghorn chicken assessed as increase in mean survival days of host at 20 mg/kg, sc administered 72 hrs after infection relative to control; assay type: functional; details: route subcutaneous
[16] = test system: Pseudomonas aeruginosa; assay: Antibacterial activity against Pseudomonas aeruginosa 28 by gradient plate test; assay type: functional
[17] = test system: Plasmodium berghei; assay: Antimalarial activity against Plasmodium berghei infected in mouse assessed as increase in mean survival days of host at 5 mg/kg, sc administered 72 hrs after infection relative to control; assay type: functional; details: route subcutaneous
[18] = test system: Plasmodium gallinaceum; assay: Antimalarial activity against trophozoite-induced Plasmodium gallinaceum infected in white leghorn chicken assessed as increase in mean survival days of host at 5 mg/kg, sc administered 72 hrs after infection relative to control; assay type: functional; details: route subcutaneous
[19] = test system: Plasmodium gallinaceum; assay: Antimalarial activity against sporozoite-induced Plasmodium gallinaceum infected in white leghorn chicken assessed as increase in mean survival days of host at 10 mg/kg, sc administered 72 hrs after infection relative to control; assay type: functional; details: route subcutaneous
[20] = test system: Plasmodium gallinaceum; assay: Antimalarial activity against sporozoite-induced Plasmodium gallinaceum infected in white leghorn chicken assessed as disease cure from parasite infection at 320 mg/kg, sc administered 72 hrs after infection; assay type: functional, organism-based; set-up: dose 320 mg/kg
[21] = test system: Plasmodium gallinaceum; assay: Antimalarial activity against trophozoite-induced Plasmodium gallinaceum infected in white leghorn chicken assessed as increase in mean survival days of host at 320 mg/kg, sc administered 72 hrs after infection relative to control; assay type: functional; details: route subcutaneous
[22] = test system: Plasmodium gallinaceum; assay: Antimalarial activity against sporozoite-induced Plasmodium gallinaceum infected in white leghorn chicken assessed as increase in mean survival days of host at 80 mg/kg, sc administered 72 hrs after infection relative to control; assay type: functional; details: route subcutaneous
[23] = test system: Plasmodium berghei; assay: Antimalarial activity against Plasmodium berghei infected in mouse assessed as disease cure from parasite infection at 40 mg/kg, sc administered 72 hrs after infection; assay type: functional, organism-based; set-up: dose 40 mg/kg
[24] = test system: Plasmodium gallinaceum; assay: Antimalarial activity against sporozoite-induced Plasmodium gallinaceum infected in white leghorn chicken assessed as increase in mean survival days of host at 40 mg/kg, sc administered 72 hrs after infection relative to control; assay type: functional; details: route subcutaneous
[25] = test system: Gallus gallus; assay: Toxicity in sporozoite-induced Plasmodium gallinaceum infected white leghorn chicken assessed as mortality at 160 mg/kg, sc administered 72 hrs after infection measured up to 6 days; assay type: organism-based; set-up: dose 160 mg/kg, route subcutaneous; details: in vivo
[26] = test system: Plasmodium berghei; assay: Antimalarial activity against Plasmodium berghei infected in mouse assessed as disease cure from parasite infection at 20 mg/kg, sc administered 72 hrs after infection; assay type: functional, organism-based; set-up: dose 20 mg/kg
[27] = test system: Plasmodium berghei; assay: Antimalarial activity against Plasmodium berghei infected in mouse assessed as increase in mean survival days of host at 10 mg/kg, sc administered 72 hrs after infection relative to control; assay type: functional; details: route subcutaneous
[28] = test system: Plasmodium gallinaceum; assay: Antimalarial activity against trophozoite-induced Plasmodium gallinaceum infected in white leghorn chicken assessed as increase in mean survival days of host at 10 mg/kg, sc administered 72 hrs after infection relative to control; assay type: functional; details: route subcutaneous
[29] = test system: Plasmodium gallinaceum; assay: Antimalarial activity against trophozoite-induced Plasmodium gallinaceum infected in white leghorn chicken assessed as increase in mean survival days of host at 2.5 mg/kg, sc administered 72 hrs after infection relative to control; assay type: functional; details: route subcutaneous
[30] = test system: Plasmodium berghei; assay: Antimalarial activity against Plasmodium berghei infected in mouse assessed as increase in mean survival days of host at 20 mg/kg, sc administered 72 hrs after infection relative to control; assay type: functional; details: route subcutaneous
[31] = test system: Plasmodium gallinaceum; assay: Antimalarial activity against trophozoite-induced Plasmodium gallinaceum infected in white leghorn chicken assessed as increase in mean survival days of host at 0.63 mg/kg, sc administered 72 hrs after infection relative to control; assay type: functional; details: route subcutaneous
[32] = test system: Plasmodium gallinaceum; assay: Antimalarial activity against trophozoite-induced Plasmodium gallinaceum infected in white leghorn chicken assessed as increase in mean survival days of host at 1.25 mg/kg, sc administered 72 hrs after infection relative to control; assay type: functional; details: route subcutaneous
[33] = test system: Plasmodium gallinaceum; assay: Antimalarial activity against trophozoite-induced Plasmodium gallinaceum infected in white leghorn chicken assessed as increase in mean survival days of host at 20 mg/kg, sc administered 72 hrs after infection relative to control; assay type: functional; details: route subcutaneous
[34] = test system: Staphylococcus aureus; assay: Antibacterial activity against drug-resistant Staphylococcus aureus S18713 by gradient plate test; assay type: functional
[35] = test system: Plasmodium gallinaceum; assay: Antimalarial activity against sporozoite-induced Plasmodium gallinaceum infected in white leghorn chicken assessed as disease cure from parasite infection at 40 mg/kg, sc administered 72 hrs after infection; assay type: functional, organism-based; set-up: dose 40 mg/kg
[36] = test system: Plasmodium berghei; assay: Antimalarial activity against Plasmodium berghei infected in mouse assessed as disease cure from parasite infection at 80 mg/kg, sc administered 72 hrs after infection; assay type: functional, organism-based; set-up: dose 80 mg/kg
[37] = test system: Escherichia coli; assay: Antibacterial activity against Escherichia coli Vogel by gradient plate test; assay type: functional
[38] = test system: Plasmodium berghei; assay: Antimalarial activity against Plasmodium berghei infected in mouse assessed as increase in mean survival days of host at 2.5 mg/kg, sc administered 72 hrs after infection relative to control; assay type: functional; details: route subcutaneous
[39] = test system: Plasmodium gallinaceum; assay: Antimalarial activity against sporozoite-induced Plasmodium gallinaceum infected in white leghorn chicken assessed as disease cure from parasite infection at 80 mg/kg, sc administered 72 hrs after infection; assay type: functional, organism-based; set-up: dose 80 mg/kg
[40] = test system: Shigella sonnei; assay: Antibacterial activity against Shigella sonnei C-10 by gradient plate test; assay type: functional
[41] = test system: Plasmodium berghei; assay: Antimalarial activity against trophozoite-induced Plasmodium berghei infected in mouse assessed as daily dose required to suppression of 90% parasite infection administered with diet for 6 days; assay type: functional
[42] = test system: Plasmodium gallinaceum; assay: Antimalarial activity against trophozoite-induced Plasmodium gallinaceum infected in white leghorn chicken assessed as increase in mean survival days of host at 40 mg/kg, sc administered 72 hrs after infection relative to control; assay type: functional; details: route subcutaneous
[43] = test system: Plasmodium gallinaceum; assay: Antimalarial activity against sporozoite-induced Plasmodium gallinaceum infected in white leghorn chicken assessed as disease cure from parasite infection at 10 mg/kg, sc administered 72 hrs after infection; assay type: functional, organism-based; set-up: dose 10 mg/kg
[44] = test system: Plasmodium gallinaceum; assay: Antimalarial activity against sporozoite-induced Plasmodium gallinaceum infected in white leghorn chicken assessed as disease cure from parasite infection at 20 mg/kg, sc administered 72 hrs after infection; assay type: functional, organism-based; set-up: dose 20 mg/kg
[45] = test system: Plasmodium gallinaceum; assay: Antimalarial activity against trophozoite-induced Plasmodium gallinaceum infected in white leghorn chicken assessed as increase in mean survival days of host at 80 mg/kg, sc administered 72 hrs after infection relative to control; assay type: functional; details: route subcutaneous
[46] = test system: Plasmodium berghei; assay: Antimalarial activity against Plasmodium berghei infected in mouse assessed as increase in mean survival days of host at 1.25 mg/kg, sc administered 72 hrs after infection relative to control; assay type: functional; details: route subcutaneous
[47] = test system: Plasmodium gallinaceum; assay: Antimalarial activity against trophozoite-induced Plasmodium gallinaceum infected in white leghorn chicken assessed as increase in mean survival days of host at 160 mg/kg, sc administered 72 hrs after infection relative to control; assay type: functional; details: route subcutaneous
[48] = test system: Plasmodium gallinaceum; assay: Antimalarial activity against sporozoite-induced Plasmodium gallinaceum infected in white leghorn chicken assessed as disease cure from parasite infection at 160 mg/kg, sc administered 72 hrs after infection; assay type: functional, organism-based; set-up: dose 160 mg/kg
[49] = test system: Staphylococcus aureus; assay: Antibacterial activity against Staphylococcus aureus UC-96 by gradient plate test; assay type: functional
[50] = test system: Plasmodium berghei; assay: Ratio of quinine hydrochloride SD90 to compound SD90 for trophozoite-induced Plasmodium berghei infected in mouse assessed as daily dose required to suppression of 90% parasite infection administered with diet for 6 days; assay type: functional
[51] = test system: Enterococcus faecalis; assay: Antibacterial activity against Streptococcus faecalis MGH-2 by gradient plate test; assay type: functional
[52] = test system: Gallus gallus; assay: Toxicity in sporozoite-induced Plasmodium gallinaceum infected white leghorn chicken assessed as mortality at 320 mg/kg, sc administered 72 hrs after infection measured up to 6 days; assay type: organism-based; set-up: dose 320 mg/kg, route subcutaneous; details: in vivo

For `Nc1nc(N)c2cc(NCc3ccc(Cl)c(Cl)c3)ccc2n1`, the Activity [1] was “Active”, the Activity [2] was “Active” and the Activity [3] was “Active”. The Activity [4] was “Active”, the Activity [5] was “Active” and the Activity [6] was “Active”. The Activity [7] was “Active”, the Activity [8] was “Active” and the Activity [9] was “Active”. For the same compound, the Activity [10] was “Active”, the Activity [11] was “Active” and the Activity [12] was “Active”. For the same compound, the Activity [13] was “Active” and the Activity [14] was “Active”.
`Nc1nc(N)c2cc(Sc3ccc(F)cc3)ccc2n1` was tested, and the MST [15] was 0.5 days, the MIC [16] was over 25 µg/mL and the MST [17] was 7.1 days. The MST [18] was 5.8 days, the Activity [2] was “Active” and the MST [19] was 6.5 days. For the same compound, the Activity [20] was “Active”, the MST [21] was 19.3 days and the MST [22] was 0.5 days. The Activity [23] was “Active”, the MST [24] was 0.5 days and the Activity [25] was “Toxic”. For the same compound, the Activity [26] was “Active”, the MST [27] was 11.1 days and the MST [28] was 7.2 days. For the same compound, the MST [29] was 3.2 days, the Activity [4] was “Active” and the MST [30] was 13.5 days. The MST [31] was 0 days, the MST [32] was 0 days and the MST [33] was 7.8 days. For the same compound, the Activity [8] was “Active”, the MIC [34] was under 0.25 µg/mL and the Activity [35] was “Active”. For the same compound, the Activity [36] was “Active”, the Activity [9] was “Active” and the MIC [37] was under 0.25 µg/mL. For the same compound, the MST [38] was 6.1 days, the Activity [39] was “Active” and the MIC [40] was under 0.25 µg/mL. For the same compound, the SD90 [41] was 0.36 mg/kg/day, the MST [42] was 9.2 days and the Activity [43] was “Active”. The Activity [44] was “Active”, the MST [45] was 13 days and the MST [46] was 5.3 days. The MST [47] was 15.5 days, the Activity [48] was “Active” and the MIC [49] was under 0.25 µg/mL. For the same compound, the Ratio [50] was 210, the MIC [51] was under 0.25 µg/mL and the Activity [52] was “Toxic”. For the same compound, the Activity [14] was “Active”.

Reference: ChEMBL document CHEMBL3272271, “Folate antagonists. 13. 2,4-Diamino-6-](alpha,alpha,alpha-trifluoro-m-tolyl)thio]quinazoline and related 2,4-diamino-6-[(phenyl- and naphthyl)thio]quinazolines, a unique class of antimetabolites with extraordinary antimalarial and antibacterial effects” (J Med Chem, 1978)
